Measurements taken from patent publication US5336758A, “Peptides stimulating cytotoxic T cells immune to HIV RT” (The United States of America as represented by the …, priority 1990, dated 1994).

Test system: L-cells
Assay type: cell-based, murine
Conditions: spontaneous lysis and cell recovery in presence of peptide alone (data not shown)
From the text: Identification of the immunodominant epitope recognized by the line Pol a: To identify the epitope(s) contained in this area, we used 21 overlapping 15-amino acid peptides designated HP134 to HP154 covering residues 168 to 316. […] HP138 ([…]) corresponds to residues 205-219 of the HTLV/IIIB strain sequence (32). […] The line Pol a was Class I MHC-restricted because it killed HP 138-pulsed, Class II MHC molecule-negative H-2^k L-cell fibroblasts, but not 3T3 fibroblasts (H-2^d) or EL4 thymoma cells (H-2^b).

SMILES: CC[C@H](C)[C@H](NC(=O)[C@H](CCCCN)NC(=O)[C@H](CO)NC(=O)[C@@H](NC(=O)[C@H](CCCCN)NC(=O)CNC(=O)[C@H](CCC(=O)O)NC(=O)[C@H](CCCCN)NC(=O)[C@H](CCC(=O)O)NC(=O)[C@H](CCSC)NC(=O)[C@H](CCC(=O)O)NC(=O)[C@@H](NC(=O)[C@@H](N)CS)[C@@H](C)O)[C@@H](C)CC)C(=O)NCC(=O)N1CCC[C@H]1C(=O)O [HP138]
- toxicity of the peptide by itself: not toxic by itself
